Common to all, as to type: cell-based
In one assay the test system is A431 (EGFR-WT). As to the kind of experiment: Cell proliferation study (CellTiter-Glo, 72 hrs), A431. The following applies: Homo sapiens, A-431, A431 cells, CTG, * = average of multiple measurements. On the procedure: (§1) (I) Reagents and Materials
(§2) • Fetal bovine serum FBS (GBICO, Cat #10099-141); • CellTiter-Glo® luminescent cell viability assay kit (Promega, Cat #G7572); • Black transparent flat-bottom 96-well plate (Corning®, Cat #3603). (II) Instruments • SpectraMax multi-label microplate reader MD, 2104-0010A; • Carbon dioxide incubator, Thermo Scientific 3100 series; • Biological safety cabinet, Thermo Scientific, 1300 series model A2; • Inverted microscope, Olympus, CKX41SF; • Siemens refrigerator KK25E76T1. (III) Cell Lines and Culture Conditions
(§3) (IV) Experimental Procedures 1. Cell Culture and Inoculation: • (1) Cells in the logarithmic growth phase were harvested and counted using a […]. The cell viability was determined by the trypan blue dye exclusion method to ensure cell viability above 90%. • (2) The cell concentration was adjusted to reach a desired final density; 90 μL of cell suspension was added to a 96-well plate. • (3) The cells were incubated overnight in the 96-well plate at 37° C., 5% CO2 and with 95% humidity. 2. T0 Benchmark Data: • (1) 10 μL of PBS was added to each well of the TO plate containing the cells. • (2) The CTG reagent was thawed and the cell plate was equilibrated to room temperature for 30 min. • (3) An equal volume of CTG solution was added to each well. • (4) The cells were lysed by shaking on an orbital shaker for 5 min. • (5) The cell plate was left to stand at room temperature for 20 min to stabilize the fluorescence signal. • (6) The fluorescence signal values of TO were read. 3. Dilution and Addition of Compounds • (1) According to the compound information table, a corresponding volume of DMSO was added to the corresponding compound powder to prepare a 10 mM stock solution. • (2) A 1000-fold, 3.16-fold-diluted compound solution was prepared. • (3) The 1000× diluted compound solution was diluted 100-fold with PBS to prepare a 10-fold compound solution with a maximum concentration of 10 μM, including 9 concentrations, with 3.16-fold dilution, and 10 μL of the medicament solution was added to each well of the 96-well plate to seed the cells. Triplicate wells were set for each compound concentration, with a final concentration of DMSO being 0.1%. • (4) The cells were placed in the 96-well plate containing the medicament at 37° C., 5% CO2 and with 95% humidity, and cultured for 72 hrs before CTG analysis. 4. Fluorescence Signal Reading • (1) The CTG reagent was thawed and the cell plate was equilibrated to room temperature for 30 min. • (2) An equal volume of CTG solution was added to each well. • (3) The cells were lysed by shaking on an orbital shaker for 5 min. • (4) The cell plate was left to stand at room temperature for 20 min to stabilize the fluorescence signal. • (5) The fluorescence values were read. 5. Data Processing
(§4) Data were analyzed using GraphPad Prism 7.0 software and fitted data were regressed using non-linear S-curves to obtain dose-response curves from which IC50 values (in nM) were calculated.
Background: Cellular ATP, detected with luciferase, serves as a proxy for viable cell number.

The target in assay [1] is Ba/F3 EGFR-D770-N771ins_SVD (Homo sapiens, UniProt P00533, DUP768-770, cells depend on it). As to the kind of experiment: Cell proliferation study (CellTiter-Glo, 72 hrs), Ba/F3 EGFR-D770-N771ins_SVD. The following applies: CTG, * = average of multiple measurements, read-out: Ba/F3 EGFR-D770-N771ins_SVD IC50. In short, it runs like this: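 Cells were seeded overnight, then exposed for 72 hrs at 37 °C, 5% CO2 to 9 concentrations in 3.16-fold steps, 0.1% DMSO final, triplicate wells. Viability was read by CellTiter-Glo luminescence, with a T0 plate read at dosing. IC50 came from nonlinear sigmoidal dose-response fits.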

Assay [2] has as its target Ba/F3 EGFR-V769_D770insASV (Homo sapiens, UniProt P00533, DUP767-769, cells depend on it). As to the kind of experiment: Cell proliferation study (CellTiter-Glo, 72 hrs), Ba/F3 EGFR-V769_D770insASV. The following applies: CTG, * = average of multiple measurements, read-out: Ba/F3 EGFR-V769_D770insASV IC50. On the procedure:
as §1, §2, §3, §4

Structures are written as SMILES.

As a reminder, the IC50 is the concentration that inhibits the measured activity by half. Read a high IC50 as a need for much substance.

Ba/F3 EGFR-D770-N771ins_SVD, sequence (P00533 with tags, fused parts or gaps DUP768-770): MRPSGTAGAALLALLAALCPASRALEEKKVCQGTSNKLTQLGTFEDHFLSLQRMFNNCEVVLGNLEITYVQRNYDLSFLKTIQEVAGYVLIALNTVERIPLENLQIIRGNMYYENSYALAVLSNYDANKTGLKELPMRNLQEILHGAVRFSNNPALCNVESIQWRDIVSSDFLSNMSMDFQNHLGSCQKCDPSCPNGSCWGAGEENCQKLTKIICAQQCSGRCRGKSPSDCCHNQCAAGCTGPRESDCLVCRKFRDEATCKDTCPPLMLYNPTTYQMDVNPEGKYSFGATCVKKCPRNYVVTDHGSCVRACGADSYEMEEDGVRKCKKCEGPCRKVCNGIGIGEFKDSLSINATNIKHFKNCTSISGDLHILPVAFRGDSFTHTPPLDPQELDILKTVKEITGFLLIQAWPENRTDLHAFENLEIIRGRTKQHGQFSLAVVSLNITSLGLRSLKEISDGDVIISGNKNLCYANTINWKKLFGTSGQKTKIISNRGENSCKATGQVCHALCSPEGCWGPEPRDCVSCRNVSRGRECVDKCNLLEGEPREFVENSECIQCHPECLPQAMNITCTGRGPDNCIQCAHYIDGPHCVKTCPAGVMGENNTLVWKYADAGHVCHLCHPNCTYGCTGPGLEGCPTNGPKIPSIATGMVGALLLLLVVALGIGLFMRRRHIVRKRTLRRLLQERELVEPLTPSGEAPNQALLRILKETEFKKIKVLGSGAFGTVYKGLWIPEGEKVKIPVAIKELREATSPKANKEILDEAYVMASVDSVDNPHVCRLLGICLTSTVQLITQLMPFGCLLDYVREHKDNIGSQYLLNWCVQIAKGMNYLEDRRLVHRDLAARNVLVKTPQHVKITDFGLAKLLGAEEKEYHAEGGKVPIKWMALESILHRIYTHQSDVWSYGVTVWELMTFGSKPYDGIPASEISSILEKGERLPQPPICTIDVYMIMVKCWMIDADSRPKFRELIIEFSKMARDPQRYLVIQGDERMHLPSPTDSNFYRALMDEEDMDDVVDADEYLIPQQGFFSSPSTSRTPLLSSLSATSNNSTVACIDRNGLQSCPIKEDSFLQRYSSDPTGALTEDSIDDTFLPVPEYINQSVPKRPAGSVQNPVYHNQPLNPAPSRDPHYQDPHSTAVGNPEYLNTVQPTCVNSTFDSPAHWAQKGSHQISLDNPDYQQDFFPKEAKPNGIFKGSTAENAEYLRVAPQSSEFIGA
Ba/F3 EGFR-V769_D770insASV, sequence (P00533 with tags, fused parts or gaps DUP767-769): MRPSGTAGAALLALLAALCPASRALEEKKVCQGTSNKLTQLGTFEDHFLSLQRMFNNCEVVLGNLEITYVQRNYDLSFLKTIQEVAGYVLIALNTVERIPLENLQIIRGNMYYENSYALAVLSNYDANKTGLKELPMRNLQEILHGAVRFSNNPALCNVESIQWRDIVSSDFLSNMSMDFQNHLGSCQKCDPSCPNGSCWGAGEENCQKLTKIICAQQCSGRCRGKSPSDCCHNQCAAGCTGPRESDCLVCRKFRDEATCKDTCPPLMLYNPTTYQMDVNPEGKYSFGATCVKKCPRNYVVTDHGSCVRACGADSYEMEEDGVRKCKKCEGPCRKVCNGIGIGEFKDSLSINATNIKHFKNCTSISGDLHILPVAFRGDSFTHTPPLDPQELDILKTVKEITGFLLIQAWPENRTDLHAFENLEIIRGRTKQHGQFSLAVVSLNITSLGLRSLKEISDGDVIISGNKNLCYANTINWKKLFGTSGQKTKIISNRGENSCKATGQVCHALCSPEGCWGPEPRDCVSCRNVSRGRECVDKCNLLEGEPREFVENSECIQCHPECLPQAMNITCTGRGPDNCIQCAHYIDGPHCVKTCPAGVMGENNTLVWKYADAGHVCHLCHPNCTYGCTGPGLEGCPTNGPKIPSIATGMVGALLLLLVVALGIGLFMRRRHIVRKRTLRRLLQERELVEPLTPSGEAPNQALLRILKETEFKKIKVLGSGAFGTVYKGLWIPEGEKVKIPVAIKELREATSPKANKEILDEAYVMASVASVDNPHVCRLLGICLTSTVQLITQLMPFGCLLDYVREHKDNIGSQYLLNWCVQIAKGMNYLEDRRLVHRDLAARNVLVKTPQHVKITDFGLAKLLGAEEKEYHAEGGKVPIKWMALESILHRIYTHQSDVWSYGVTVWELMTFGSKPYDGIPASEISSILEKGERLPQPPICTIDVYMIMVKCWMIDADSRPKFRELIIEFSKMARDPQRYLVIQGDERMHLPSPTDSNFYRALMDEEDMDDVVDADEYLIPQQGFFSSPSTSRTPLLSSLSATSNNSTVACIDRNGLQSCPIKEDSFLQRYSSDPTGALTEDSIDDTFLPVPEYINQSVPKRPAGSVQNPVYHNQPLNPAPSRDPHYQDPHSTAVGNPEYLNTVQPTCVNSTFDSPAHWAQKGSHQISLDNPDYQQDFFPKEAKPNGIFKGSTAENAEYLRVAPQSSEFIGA

In the assay on A431 (EGFR-WT), `C=CC(=O)Nc1cc(Nc2ncc(C(=O)OC(C)C)c(N3CC(C)(C)c4nc(C=C)ccc43)n2)c(OC)cc1N(C)CCN(C)C` [Example 20, isopropyl 2-((5-acrylamido-4-((2-(dimethylami-no)ethyl)(methyl)amino)-2-methoxy-phenyl)amino)-4-(3,3-dimethyl-5-vinyl-2,3-dihydro-1H-pyrrolo[3,2-b]pyridin-1-yl)pyrimidine-5-carboxylate] yielded an IC50 of 746 nM. Moreover, the GI50 in assay [1] is 34.3 nM; in assay [2], 66.6 nM.
The corresponding values for `C=CC(=O)Nc1cc(Nc2ncc(C(=O)OC(C)C)c(N3CC4(CC4)c4ncccc43)n2)c(OC)cc1N(C)CCN(C)C` [Example 21, isopropyl 2-((5-acrylamido-4-((2-(dimethylami-no)ethyl)(methyl)amino)-2-methoxy-phenyl)amino)-4-(spiro(cyclopropane-1,3′-pyrrolo[3,2-b]pyridin)-1′(2′H)-yl)pyrimidine-5-carboxylate] are 404 nM, 24.6 nM and 56.8 nM.
For `C=CC(=O)Nc1cc(Nc2ncc(C(=O)OC(C)C)c(N3CC4(CC4)c4nc(C)ccc43)n2)c(OC)cc1N(C)CCN(C)C` [Example 22, isopropyl 2-((5-acrylamido-4-((2-(dimethylami-no)ethyl)(methyl)amino)-2-methoxy-phenyl)amino)-4-(5′-methylspiro(cyclo-propane-1,3′-pyrrolo[3,2-b]pyridin)-1′(2′H)-yl)pyrimidine-5-carboxylate], the IC50 in the assay with A431 (EGFR-WT) turned out to be 127 nM. Besides, the GI50 in assay [1] worked out at 20.6 nM; in assay [2], 48.8 nM.
The corresponding values for `C=CC(=O)Nc1cc(Nc2ncc(C(=O)OC(C)C)c(N3CC4(CC4)c4nc(C)ccc43)n2)c(OC)cc1N(C)CCNC` [Example 25, isopropyl 2-((5-acrylamido-2-methoxy-4-(methyl(2-(methylamino)ethyl)ami-no)phenyl)amino)-4-(5′-methyl-spiro(cyclopropane-1,3′-pyrrolo[3,2-b]pyridin)-1′(2′H)-yl)pyrimidine-5-carboxylate] are 222 nM, 34.2 nM and 53.8 nM.
In turn, `C=CC(=O)Nc1cc(Nc2ncc(C(=O)OC(C)C)c(N3CC4(CC4)c4nc(C)ccc43)n2)c(OC)cc1N1CC[C@@H](N(C)C)C1` [Example 26, isopropyl (R)-2-((5-acrylamido-4-(3-(dimethyl-amino)pyrrolidin-1-yl)-2-methoxy-phenyl)amino)-4-(5′-methyl-spiro(cyclopropane-1,3′-pyrrolo[3,2-b]pyridin)-1′(2′H)-yl)pyrimidine-5-carboxylate] had an IC50 in the assay on A431 (EGFR-WT) of 363 nM. The GI50 was determined as 29.7 nM in assay [1] and 52.8 nM in assay [2].
On the same counts, the results for `C=CC(=O)Nc1cc(Nc2ncc(C(=O)OC(C)C)c(N3CC(C)(C)c4nc(C)ccc43)n2)c(OC)nc1N(C)CCN(C)C` [Example 29, isopropyl 2-((5-acrylamido-6-((2-(dimethylami-no)ethyl)(methyl)amino)-2-methoxy-pyridin-3-yl)amino)-4-(3,3,5-trimethyl-2,3-dihydro-1H-pyrrolo[3,2-b]pyridin-1-yl)pyrimidine-5-carboxylate] are 282 nM, 13.3 nM and 16 nM.
On the same counts, the results for `C=CC(=O)Nc1cc(Nc2ncc(C(=O)OC(C)C)c(N3CC(C)(C)c4nc(C#CC)ccc43)n2)c(OC)cc1N(C)CCN(C)C` [Example 30, isopropyl 2-((5-acrylamido-4-((2-(dimethylami-no)ethyl)(methyl)amino)-2-methoxy-phenyl)amino)-4-(3,3-dimethyl-5-(prop-1-yn-1-yl)-2,3-dihydro-1H-pyrrolo[3,2-b]pyridin-1-yl)pyrimidine-5-carboxylate] are 557 nM, 7.6 nM and 21.5 nM.
The corresponding values for `C=CC(=O)Nc1cc(Nc2ncc(C(=O)OC(C)C)c(N3CC(C)(C)c4nc(C)ccc43)n2)c(OC)nc1N1CCC[C@@H]1CN(C)C` [Example 31, isopropyl (R)-2-((5-acrylamido-6-(2-((dimethyl-amino)methyl)pyrrolidin-1-yl)-2-meth-oxypyridin-3-yl)amino)-4-(3,3,5-tri-methyl-2,3-dihydro-1H-pyrrolo[3,2-b]pyridin-1-yl)pyrimidine-5-carboxylate] are 183 nM, 11.8 nM and 13.9 nM.
Compound `[2H]C([2H])([2H])N(CCN(C)C)c1cc(OC)c(Nc2ncc(C(=O)OC(C)C)c(N3CC(C)(C)c4nc(C)ccc43)n2)cc1NC(=O)C=C` [Example 36, isopropyl 2-((5-acrylamido-4-((2-(dimethylami-no)ethyl)(methyl-d3)amino)-2-methoxy-phenyl)amino)-4-(3,3,5-trimethyl-2,3-dihydro-1H-pyrrolo[3,2-b]pyridin-1-yl)pyrimidine-5-carboxylate] returned a 50% inhibitory concentration (IC50) in the assay with A431 (EGFR-WT) of 353 nM. For the same compound, the GI50 in assay [1] is 14.8 nM; in assay [2], 22.8 nM.
The corresponding values for `C=CC(=O)Nc1cc(Nc2ncc(C(=O)OC(C)C)c(N3CC(C)(C)c4nc(C)ccc43)n2)c(OC)cc1N1CC(N(C)C)C1` [Example 40, isopropyl 2-((5-acrylamido-4-(3-(dimethylami-no)azetidin-1-yl)-2-methoxyphenyl)ami-no)-4-(3,3,5-trimethyl-2,3-dihydro-1H-pyrrolo[3,2-b]pyridin-1-yl)pyrimidine-5-carboxylate] are 295 nM, 33.9 nM and 44.2 nM.
In turn, `[2H]C([2H])([2H])N(CCN(C)c1cc(OC)c(Nc2ncc(C(=O)OC(C)C)c(N3CC(C)(C)c4nc(C)ccc43)n2)cc1NC(=O)C=C)C([2H])([2H])[2H]` [Example 42, isopropyl 2-((5-acrylamido-4-((2-(bis(methyl-d3)amino)ethyl)(methyl)amino)-2-methoxyphenyl)amino)-4-(3,3,5-trimethyl-2,3-dihydro-1H-pyrrolo[3,2-b]pyridin-1-yl)pyrimidine-5-carboxylate] registered an IC50 in the assay with A431 (EGFR-WT) of 114 nM. Moreover, the GI50 in assay [1] was 11.3 nM; in assay [2] it was 23.6 nM.
The corresponding values for `C=CC(=O)Nc1cc(Nc2ncc(C(=O)OC(C)C)c(N3CC4(CC4)c4nc(C)ccc43)n2)c(OC)cc1N(C)C[C@@H]1CCCN1C` [Example 44, isopropyl (S)-2-((5-acrylamido-2-methoxy-4-(methyl((1-methylpyrrolidin-2-yl)methyl)amino)phenyl)amino)-4-(5′-methylspiro(cyclopropane-1,3′-pyrrolo[3,2-b]pyridin)-1′(2′H)-yl)pyrimidine-5-carboxylate] are 235 nM, 30.4 nM and 76.5 nM.
The corresponding values for `C=CC(=O)Nc1cc(Nc2ncc(C(=O)OC(C)C)c(N3CC(C)(C)c4nc(C)ccc43)n2)c(OC)nc1N(C)C[C@@H]1CCCN1C` [Example 46, isopropyl (S)-2-((5-acrylamido-2-methoxy-6-(methyl((1-methylpyrrolidin-2-yl)methyl)amino)pyridin-3-yl)amino)-4-(3,3,5-trimethyl-2,3-dihydro-1H-pyrrolo[3,2-b]pyridin-1-yl)pyrimidine-5-carboxylate] are 270 nM, 20.5 nM and 33.5 nM.
